This experiment deals with Hepatitis C virus. The experiment is described as follows: Antiviral activity against HCV genotype 1b after 3 days by luciferase reporter assay. It is filed as functional, organism-based, Hepacivirus hominis. As to conditions: 72 h. A general note: A reporter such as luciferase makes a cellular process visible.

Regarding `Cc1cnc(C(=O)N[C@H]2CCCCC/C=C\[C@@H]3C[C@@]3(C(=O)NS(=O)(=O)C3CC3)NC(=O)[C@@H]3C[C@@H](Oc4nc5ccccc5c5ccccc45)CN3C2=O)cn1`, the EC50 is 0.21 nM.

As usually defined, the EC50 is the concentration needed to bring the measured effect to its halfway point.
